Experiment [1] deals with T1, Alkaline phosphatase, tissue-nonspecific isozyme (Homo sapiens, UniProt P05186).
T1 sequence (P05186 whole entry): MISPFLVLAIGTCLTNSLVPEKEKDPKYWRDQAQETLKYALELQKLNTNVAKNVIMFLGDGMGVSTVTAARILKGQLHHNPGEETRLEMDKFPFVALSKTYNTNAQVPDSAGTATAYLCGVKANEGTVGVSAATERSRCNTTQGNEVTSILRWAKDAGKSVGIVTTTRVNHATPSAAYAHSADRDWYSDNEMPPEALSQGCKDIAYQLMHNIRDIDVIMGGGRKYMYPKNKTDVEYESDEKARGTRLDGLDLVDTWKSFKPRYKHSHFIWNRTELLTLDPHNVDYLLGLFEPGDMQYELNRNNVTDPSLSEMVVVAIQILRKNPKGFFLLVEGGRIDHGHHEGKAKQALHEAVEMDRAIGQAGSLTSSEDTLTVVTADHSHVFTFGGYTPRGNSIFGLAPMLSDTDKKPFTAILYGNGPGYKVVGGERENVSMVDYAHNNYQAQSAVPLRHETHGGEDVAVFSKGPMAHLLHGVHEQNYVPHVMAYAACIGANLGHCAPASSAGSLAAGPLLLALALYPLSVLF
The experiment is described as follows: TNAP enzyme inhibition by screening hits, dose response, selectivity assay for mouse IAP inhibitor project, biochemical, human TNAP, uHTS hits (AID 488906). The format is functional.

Experiment [2] addresses Heat shock 70 kDa protein 1A (Homo sapiens, UniProt P0DMV8). The experiment in a line: Hsp70 inhibitors, SAR follow-up, biochemical, fluorescence polarization (AID 1072). Background: Fluorescence polarisation rises when a labelled molecule tumbles more slowly, as on binding a larger partner.
A further experiment has as its target T2, Bcl-2-related protein A1 (Mus musculus, UniProt Q07440).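 Note: confirmatory dose–response counterscreen on Bfl-1, used to check hits from a UBC13 polyubiquitin inhibitor campaign.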
T2 sequence (Q07440 whole entry): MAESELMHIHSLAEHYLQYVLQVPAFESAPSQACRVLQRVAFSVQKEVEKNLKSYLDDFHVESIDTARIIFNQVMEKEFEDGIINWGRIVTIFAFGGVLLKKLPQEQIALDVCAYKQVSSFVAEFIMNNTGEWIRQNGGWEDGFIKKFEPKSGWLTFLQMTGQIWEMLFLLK
In kind it is functional.

Experiment [3] has as its target Runt-related transcription factor 1/Core-binding factor subunit beta (Homo sapiens, UniProt Q01196+Q13951). The experiment in a line: inhibitors of RUNX1 Runt–CBFb-SMMHC binding, primary screen, biochemical, FRET, Cerulean-Runt, Venus-CBFb-SMMHC, uHTS (AID 1434).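 Note: partner is the CBFb-SMMHC leukemia fusion protein rather than wild-type CBFb.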 The format is protein assay.
The target of experiment [4] is Eukaryotic translation initiation factor 4E (Mus musculus, UniProt P63073). The experiment is described as follows: eIF4E–eIF4G protein interaction inhibitors, dose response, biochemical, TR-FRET (AID 855).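 Note: potency for disrupting eIF4E binding to eIF4GI seen as loss of FRET.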 The format is functional. For orientation: Time-resolved FRET reads energy transfer from a long-lived donor to a nearby acceptor.
Experiment [5] has as its target T3, Ubiquitin-conjugating enzyme E2 N (Homo sapiens, UniProt P61088).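 Note: Dose-response confirmation in a TR-FRET assay detecting UBC13-driven polyubiquitin chain formation, inhibition measured.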
T3 sequence (P61088 whole entry): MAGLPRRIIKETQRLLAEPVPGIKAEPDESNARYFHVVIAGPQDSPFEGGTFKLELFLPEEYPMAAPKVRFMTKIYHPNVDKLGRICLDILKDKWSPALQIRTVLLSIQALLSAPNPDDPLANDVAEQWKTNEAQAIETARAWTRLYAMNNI
The format is functional.

Experiment [6] concerns the target Voltage-gated N-type calcium channel alpha-1B subunit/Amyloid beta A4 precursor protein-binding family A member 1 (Homo sapiens, UniProt Q00975+Q02410). In kind it is protein assay.
The target of another experiment is Troponin, cardiac muscle (Homo sapiens, UniProt P19429+P45379+P63316). The experiment in a line: inhibitors of cardiac thin filament calcium sensitivity, dose response, biochemical, fluorescence, cardiac regulated thin filaments, triplicate IC50 (AID 504742). In kind it is protein-complex assay.
For experiment [7], the target named is Ribosomal protein S6 kinase alpha-3 (Homo sapiens, UniProt P51812). The format is functional.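 Note: measured within a kinome-wide profiling panel.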
The next experiment concerns the target LIM domain kinase 1 (Homo sapiens, UniProt P53667). The experiment in a line: Navigating the Kinome. Panel member name: LIMK1. In kind it is functional.
The target in experiment [8] is Dual specificity mitogen-activated protein kinase kinase 2 (Homo sapiens, UniProt P36507). The experiment is described as follows: Navigating the Kinome. Panel member name: MAP2K2. The format is functional.
The target of experiment [9] is Receptor-type tyrosine-protein kinase FLT3 (Homo sapiens, UniProt P36888). The format is functional.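 Note: FLT3 was tested as one member of a kinome-wide kinase panel.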
For experiment [10], the target named is Inhibitor of nuclear factor kappa-B kinase subunit epsilon (Homo sapiens, UniProt Q14164). The experiment in a line: Navigating the Kinome. Panel member name: IKBKE. The format is functional.
Experiment [11] deals with Glycogen synthase kinase-3 beta (Homo sapiens, UniProt P49841). In kind it is functional.
Experiment [12] deals with Serine/threonine-protein kinase PAK 4 (Homo sapiens, UniProt O96013). The format is functional.
The target in experiment [13] is T4, Heat shock factor protein 1 (Mus musculus, UniProt P38532).
T4 sequence (P38532 whole entry): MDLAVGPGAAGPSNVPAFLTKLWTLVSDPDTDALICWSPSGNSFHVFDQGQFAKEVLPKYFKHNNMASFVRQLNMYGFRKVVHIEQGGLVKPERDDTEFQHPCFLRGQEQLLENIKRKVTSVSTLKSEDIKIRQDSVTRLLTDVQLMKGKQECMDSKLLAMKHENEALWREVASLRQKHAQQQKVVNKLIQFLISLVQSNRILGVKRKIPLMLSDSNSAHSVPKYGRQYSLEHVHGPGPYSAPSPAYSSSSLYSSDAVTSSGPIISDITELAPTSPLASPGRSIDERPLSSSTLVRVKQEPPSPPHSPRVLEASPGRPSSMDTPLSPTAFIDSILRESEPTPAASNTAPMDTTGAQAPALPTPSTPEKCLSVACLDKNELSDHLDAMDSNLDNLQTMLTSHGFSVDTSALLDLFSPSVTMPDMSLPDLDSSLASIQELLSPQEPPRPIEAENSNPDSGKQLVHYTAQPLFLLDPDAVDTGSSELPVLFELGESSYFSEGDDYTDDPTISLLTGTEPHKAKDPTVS
The experiment in a line: inhibition of MG132-induced HSE-luciferase signal, confirmation, cell-based, NIH3T3, luminescence, dose retest (AID 2382).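 Note: NIH3T3 fibroblasts with HSF1-driven luciferase reporter stressed by proteasome inhibitor MG132; luminescence from HSF1-driven luciferase expression after 8 hours of MG132 stress.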 The format is functional.

Experiment [14] in a line: cytotoxicity toward DRD oncogenic fibroblasts, dose response, cell-based, non-viral oncogenic, luminescence (AID 1934). The format is functional. To be noted: Homo sapiens.
For the next experiment, the target named is Ephrin type-A receptor 2 (Homo sapiens, UniProt P29317). In kind it is functional.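 Note: EPHA2 tested as one member of a kinome-wide kinase panel.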
Experiment [15] concerns the target Mitogen-activated protein kinase kinase kinase kinase 5 (Homo sapiens, UniProt Q9Y4K4). The format is functional.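 Note: measured as one member of a kinome-spanning kinase panel.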
For experiment [16], the target named is Mitogen-activated protein kinase 13 (Homo sapiens, UniProt O15264). The format is functional.
The target of experiment [17] is Cyclin-dependent kinase 2 (Homo sapiens, UniProt P24941). In kind it is functional.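 Note: CDK2 measured as one member of a broad kinome profiling panel.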
Experiment [18] has as its target Tyrosine-protein kinase BTK (Homo sapiens, UniProt Q06187). In kind it is functional.
The target in experiment [19] is Serine/threonine-protein kinase Nek4 (Homo sapiens, UniProt P51957). The format is functional.
Experiment [20] has as its target Serine/threonine-protein kinase PLK4 (Homo sapiens, UniProt O00444). The format is functional.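 Note: PLK4 measured as one member of a kinome-wide kinase profiling panel.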

SMILES strings stand for the structures. Calls of active or inactive are those of the source. Some results are limits rather than exact numbers.

As usually defined, the IC50 is the concentration that inhibits the measured activity by half. Turning to `O=C1/C(=C\c2cccc(O)c2O)SC(=S)N1Cc1ccccc1`, in experiment [1], the IC50 was > 100000 nM (inactive).

Take `COc1cccc2c1NC(C(=O)O)C1CC=CC21` (centres undefined): the IC50 in experiment [2] is 6260 nM (active); at Bcl-2-related protein A1, 1100 nM (active); in experiment [3] it was > 100000 nM (inactive); in [4], 12800 nM (active); in [5], 19100 nM (active); in experiment [6], 13200 nM (active). The IC50 on Troponin, cardiac muscle was 27700 nM (inactive).

One may read the Ki as a dissociation constant, usually derived from enzyme kinetics or from competition with a known ligand. Regarding `COc1c(-c2nc3ccccc3[nH]2)c(O)cc2oc(C)cc(=O)c12`, the Ki in [7] is 794 nM (active); at LIM domain kinase 1, 31.6 nM (active); in experiment [8] it was 398 nM (active); in experiment [9], 398 nM (active); in experiment [10], 2000 nM (active); in [11], 398 nM (active). Also, the Ki in [12] was > 5010 nM (inactive).

For orientation: EC50 means the concentration at which the effect is half-maximal. In the case of `CCc1ccc(S(=O)(=O)/N=C2\C=C(Nc3ccc(O)cc3)C(=O)c3ccccc32)cc1`, the EC50 is 1160 nM (active) in experiment [13] and 3330 nM (active) in experiment [14].

Regarding `Cc1ccc(F)c(NC(=O)Nc2ccc(-c3cccc4[nH]nc(N)c34)cc2)c1` [LINIFANIB], the inhibition constant Ki is 2510 nM (active) on Ephrin type-A receptor 2; 316 nM (active) in experiment [15]; 2510 nM (active) in [16]; > 7940 nM (inactive) in [17]; > 6310 nM (inactive) in experiment [18]; > 6310 nM (inactive) in experiment [19]. In addition, in experiment [20], the Ki is 631 nM (active).

The record behind these values is ChEMBL document CHEMBL1201862, “PubChem BioAssay data set” (2004).
